Source: patent US6737383B1, “Herbicidal oxadiazolidines” (priority 1999, dated 2004)

How the values were obtained:
sugar beet = assay: Test B pre/postemergence sugar beet; type: in vivo, Beta vulgaris
In short: (§1)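 Response is a visual 0-to-10 score relative to untreated plants, where 0 means no effect and 10 means complete control, taken twelve to sixteen days after application. Treatments went onto soil at planting and onto foliage of 1- to 4-leaf plants, using a surfactant-containing non-phytotoxic solvent.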

corn = assay: Test B pre/postemergence corn; type: in vivo, Zea mays
In short: as §1

rice = assay: Test B flood test rice; type: in vivo, Oryza sativa; conditions: for Rice plant response rating (0 to 10 scale, 0 is no effect, 10 is complete control): under heading Pre-emergence
In short: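 Flood test on plants grown to the 2-leaf stage; treated plants kept in greenhouse twelve to sixteen days, then visually rated against controls on a 0 (no effect) to 10 (complete control) scale.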

crabgrass = assay: Test B pre/postemergence crabgrass; type: in vivo, Digitaria sanguinalis
In short: as §1

[1] = Postemergence, Rate 62 g/ha, scale 0 to 10, 0 is no effect, 10 is complete control
[2] = Postemergence, Rate 250 g/ha, scale 0 to 10, 0 no effect, 10 complete control
[3] = Preemergence, Rate 62 g/ha, scale 0 to 10 (0 no effect, 10 complete control)
[4] = Preemergence, Rate 125 g/ha, scale 0 to 10 (0 no effect, 10 complete control)
[5] = Preemergence, Rate 250 g/ha, scale of 0 to 10 where 0 is no effect and 10 is complete control
[6] = Preemergence, Rate 500 g/ha, scale 0 (no effect) to 10 (complete control)
[7] = Rate 125 g/ha, Postemergence, scale 0 to 10, 0 no effect, 10 complete control
[8] = Rate 500 g/ha, Postemergence, scale 0 to 10, 0 no effect, 10 complete control
[9] = Postemergence, Rate 250 g/ha, scale 0 to 10, 0 is no effect, 10 is complete control
[10] = Postemergence, Rate 500 g/ha, scale of 0 to 10 where 0 is no effect and 10 is complete control
[11] = Preemergence, Rate 125 g/ha, scale of 0 to 10 where 0 is no effect and 10 is complete control
[12] = Preemergence, Rate 250 g/ha, scale 0 to 10, 0 is no effect, 10 is complete control
[13] = Preemergence, Rate 500 g/ha, scale 0 to 10, 0 is no effect, 10 is complete control
[14] = Rate 125 g/ha, Postemergence, scale 0 to 10, 0 is no effect, 10 is complete control
[15] = Rate 62 g/ha, Postemergence, scale of 0 to 10 where 0 is no effect and 10 is complete control
[16] = Postemergence, Rate 250 g/ha, scale 0 to 10
[17] = Postemergence, Rate 1000 g/ha, scale 0 to 10 (0 no effect, 10 complete control)
[18] = Rate 1000 g/ha, Preemergence, scale 0 to 10 (0 no effect, 10 complete control)
[19] = Rate 125 g/ha, flood test species, visual evaluation after twelve to sixteen days
[20] = Rate 250 g/ha, Pre-emergence (flood test species), scale 0 to 10, 0 is no effect, 10 is complete control
[21] = Rate 500 g/ha, Pre-emergence, flood test species, scale 0 to 10 (0 no effect, 10 complete control)
[22] = Preemergence, Rate 250 g/ha, scale 0 (no effect) to 10 (complete control)
[23] = Rate 62 g/ha, Preemergence, scale 0 to 10
[24] = Rate 250 g/ha, Postemergence, scale 0 to 10, 0 is no effect, 10 is complete control
[25] = Rate 500 g/ha, Postemergence, scale 0 to 10, 0 is no effect, 10 is complete control
[26] = Rate 500 g/ha, Preemergence, scale 0 to 10 (0 no effect, 10 complete control)
[27] = Postemergence, Rate 125 g/ha, scale of 0 to 10 where 0 is no effect and 10 is complete control
[28] = Preemergence, Rate 62 g/ha, scale of 0 to 10 where 0 is no effect and 10 is complete control
[29] = Rate 62 g/ha, Postemergence, scale 0 to 10, 0 no effect, 10 complete control

Cc1cccc(C(C)C)c1-n1c(=O)on(C(=O)N(c2ccccc2)C(C)C)c1=O [Compound 66]
Sugarbeets plant response rating (sugar beet; [1]): 0
Sugarbeets plant response rating (sugar beet; [2]): 0
Sugarbeets plant response rating (sugar beet; [3]): 0
Plant response rating, Sugarbeets (sugar beet; [4]): 0
Plant response rating, Sugarbeets (sugar beet; [5]): 0
Sugarbeets plant response rating (sugar beet; [6]): 0
Sugarbeets plant response rating (sugar beet; [7]): 0
Sugarbeets plant response rating (sugar beet; [8]): 0
Corn plant response rating (corn; [1]): 0
Corn plant response rating (corn; [2]): 0
Corn plant response rating (corn; [3]): 0
Plant response rating, Corn (corn; [4]): 0
Plant response rating, Corn (corn; [5]): 0
Corn plant response rating (corn; [6]): 0
Corn plant response rating (corn; [7]): 0
Corn plant response rating (corn; [8]): 2
Rice plant response rating (rice; [1]): 0
Rice plant response rating (rice; Rate 125 g/ha, Postemergence section (flood test species), scale 0 to 10, 0 no effect, 10 complete control): 0
Rice plant response rating (rice; Rate 500 g/ha, listed under Postemergence (flood test species), scale 0 to 10, 0 no effect, 10 complete control): 0
Rice plant response rating (rice; flood test, listed under Postemergence, Rate 250 g/ha, scale 0 to 10, 0 no effect, 10 complete control): 0
Crabgrass plant response rating (crabgrass; [1]): 0
Crabgrass plant response rating (crabgrass; [2]): 0
Crabgrass plant response rating (crabgrass; [3]): 0
Plant response rating, Crabgrass (crabgrass; [4]): 2
Plant response rating, Crabgrass (crabgrass; [5]): 4
Crabgrass plant response rating (crabgrass; [6]): 8
Crabgrass plant response rating (crabgrass; [7]): 0
Crabgrass plant response rating (crabgrass; [8]): 0

CC(C)N(C(=O)n1oc(=O)n(C(CF)CF)c1=O)c1ccccc1 [Compound 421]
Plant response rating, Sugarbeets (sugar beet; [9]): 3
Sugarbeets plant response rating (sugar beet; [10]): 6
Plant response rating, Sugarbeets (sugar beet; [3]): 8
Plant response rating, Sugarbeets (sugar beet; [11]): 10
Sugarbeets plant response rating (sugar beet; [12]): 10
Sugarbeets plant response rating (sugar beet; [13]): 10
Sugarbeets plant response rating (sugar beet; [14]): 0
Plant response rating, Corn (corn; [9]): 3
Corn plant response rating (corn; [10]): 7
Plant response rating, Corn (corn; [3]): 4
Plant response rating, Corn (corn; [11]): 5
Corn plant response rating (corn; [12]): 8
Corn plant response rating (corn; [13]): 8
Corn plant response rating (corn; [15]): 0
Corn plant response rating (corn; [14]): 0
Rice plant response rating (rice; Postemergence section (flood test species), Rate 500 g/ha, scale of 0 to 10 where 0 is no effect and 10 is complete control): 2
Rice plant response rating (rice; Rate 125 g/ha, Postemergence section (flood test species), scale 0 to 10, 0 is no effect, 10 is complete control): 0
Plant response rating, Rice (rice; flood test species, listed under Postemergence, Rate 250 g/ha, scale 0 to 10, 0 is no effect, 10 is complete control): 2
Plant response rating, Crabgrass (crabgrass; [9]): 8
Crabgrass plant response rating (crabgrass; [10]): 8
Plant response rating, Crabgrass (crabgrass; [3]): 8
Plant response rating, Crabgrass (crabgrass; [11]): 8
Crabgrass plant response rating (crabgrass; [12]): 9
Crabgrass plant response rating (crabgrass; [13]): 10
Crabgrass plant response rating (crabgrass; [15]): 4
Crabgrass plant response rating (crabgrass; [14]): 7

CCOP(=O)(OCC)C(C)n1c(=O)on(C(=O)N(c2ccccc2)C(C)C)c1=O (stereo not drawn) [Compound 448]
Sugarbeets plant response rating (sugar beet; [16]): 0
Sugarbeets plant response rating (sugar beet; [10]): 0
Sugarbeets plant response rating (sugar beet; [17]): 0
Plant response rating, Sugarbeets (sugar beet; [11]): 0
Sugarbeets plant response rating (sugar beet; [12]): 0
Sugarbeets plant response rating (sugar beet; [13]): 0
Sugarbeets plant response rating (sugar beet; [14]): 0
Plant response rating, Sugarbeets (sugar beet; [18]): 0
Corn plant response rating (corn; [16]): 0
Corn plant response rating (corn; [10]): 0
Corn plant response rating (corn; [17]): 0
Plant response rating, Corn (corn; [11]): 0
Corn plant response rating (corn; [12]): 0
Corn plant response rating (corn; [13]): 0
Corn plant response rating (corn; [14]): 0
Plant response rating, Corn (corn; [18]): 2
Rice plant response rating (rice; Pre-emergence, Rate 1000 g/ha, scale 0 to 10 (0 no effect, 10 complete control)): 0
Rice plant response rating (0 to 10 scale, 0 is no effect, 10 is complete control) (rice; [19]): 0
Rice plant response rating (rice; [20]): 0
Rice plant response rating (rice; [21]): 0
Crabgrass plant response rating (crabgrass; [16]): 0
Crabgrass plant response rating (crabgrass; [10]): 0
Crabgrass plant response rating (crabgrass; [17]): 0
Plant response rating, Crabgrass (crabgrass; [11]): 4
Crabgrass plant response rating (crabgrass; [12]): 4
Crabgrass plant response rating (crabgrass; [13]): 9
Crabgrass plant response rating (crabgrass; [14]): 0
Plant response rating, Crabgrass (crabgrass; [18]): 9

CC(C)N(C(=O)n1oc(=O)n(CC2=NOCCO2)c1=O)c1ccc(F)cc1F [Compound 758]
Plant response rating, Sugarbeets (sugar beet; [1]): 0
Plant response rating, Sugarbeets (sugar beet; [11]): 7
Sugarbeets plant response rating (sugar beet; [22]): 7
Sugarbeets plant response rating (sugar beet; [23]): 5
Sugarbeets plant response rating (sugar beet; [24]): 3
Sugarbeets plant response rating (sugar beet; [25]): 8
Sugarbeets plant response rating (sugar beet; [26]): 8
Plant response rating, Corn (corn; [1]): 0
Corn plant response rating (corn; [27]): 0
Plant response rating, Corn (corn; [11]): 0
Corn plant response rating (corn; [23]): 0
Corn plant response rating (corn; [24]): 0
Corn plant response rating (corn; [25]): 3
Corn plant response rating (corn; [26]): 3
Rice plant response rating (rice; Pre-emergence, Rate 62 g/ha, scale 0 to 10, 0 is no effect, 10 is complete control): 0
Rice plant response rating (rice; Rate 125 g/ha, Pre-emergence section (flood test species), scale 0 to 10, 0 no effect, 10 complete control): 0
Rice plant response rating (rice; [20]): 0
Rice plant response rating (rice; Rate 500 g/ha, Pre-emergence section of Table B, 0 to 10 scale (0 no effect, 10 complete control)): 0
Plant response rating, Crabgrass (crabgrass; [1]): 2
Crabgrass plant response rating (crabgrass; [27]): 3
Plant response rating, Crabgrass (crabgrass; [11]): 9
Crabgrass plant response rating (crabgrass; [22]): 10
Crabgrass plant response rating (crabgrass; [23]): 9
Crabgrass plant response rating (crabgrass; [24]): 8
Crabgrass plant response rating (crabgrass; [25]): 9
Crabgrass plant response rating (crabgrass; [26]): 10

CC[Si](C)(C)Cn1c(=O)on(C(=O)N(c2ccc(F)cc2)C(C)C)c1=O [Compound 459]
Sugarbeets plant response rating (sugar beet; [16]): 0
Plant response rating, Sugarbeets (sugar beet; [28]): 0
Plant response rating, Sugarbeets (sugar beet; [11]): 0
Sugarbeets plant response rating (sugar beet; [12]): 0
Sugarbeets plant response rating (sugar beet; [13]): 0
Sugarbeets plant response rating (sugar beet; [29]): 0
Sugarbeets plant response rating (sugar beet; [14]): 0
Corn plant response rating (corn; [16]): 0
Corn plant response rating (corn; [10]): 0
Plant response rating, Corn (corn; [28]): 0
Plant response rating, Corn (corn; [11]): 0
Corn plant response rating (corn; [12]): 0
Corn plant response rating (corn; [13]): 0
Corn plant response rating (corn; [29]): 0
Corn plant response rating (corn; [14]): 0
Plant response rating, Rice (0 to 10 scale, 0 is no effect, 10 is complete control) (rice; Rate 62 g/ha, flood test species, Pre-emergence, visual evaluation after twelve to sixteen days): 0
Rice plant response rating (0 to 10 scale, 0 is no effect, 10 is complete control) (rice; [19]): 0
Rice plant response rating (rice; [20]): 0
Rice plant response rating (rice; [21]): 0
Crabgrass plant response rating (crabgrass; [16]): 5
Crabgrass plant response rating (crabgrass; [10]): 8
Plant response rating, Crabgrass (crabgrass; [28]): 5
Plant response rating, Crabgrass (crabgrass; [11]): 7
Crabgrass plant response rating (crabgrass; [12]): 9
Crabgrass plant response rating (crabgrass; [13]): 10
Crabgrass plant response rating (crabgrass; [29]): 0
Crabgrass plant response rating (crabgrass; [14]): 1
